The species named for data set [1] is Rattus norvegicus. Kind of data set: Vasorelaxant activity in U46619-induced preconstricted rat endothelium-intact main mesenteric artery assessed as relaxation response at 30 uM relative to control. Format: functional.
Data set [2] is filed under the species Rattus norvegicus. Kind of data set: Vasorelaxant activity in rat endothelium-denuded main mesenteric artery assessed as relaxation response at 10 uM. The data set is classed as functional.
Data set [3] is filed under the species Rattus norvegicus. Kind of data set: Vasorelaxant activity in rat endothelium-intact main mesenteric artery assessed as relaxation response at 10 uM. Format: functional.
For data set [4], the species on record is Rattus norvegicus. Kind of data set: Vasorelaxant activity in U46619-induced preconstricted rat endothelium-intact main mesenteric artery assessed as relaxation response at 10 uM (reference value: 9.08 +/- 1.25 mN). The data set is classed as functional. Further details: scale not given: the % may be the effect or the level left.
Data set [5] in a line: Cytotoxicity against VSMC (unknown origin) cells assessed as cell survival at 1 uM measured after 12 hrs by MTT assay. The data set is classed as toxicity, cell-based. As to conditions: read-out: Activity.
The subject of data set [6] is BV-2. Kind of data set: Anti-neuroinflammatory activity in mouse BV2 cells assessed as reduction in LPS-induced IL-6 production at 10 uM preincubated for 30 mins followed by LPS stimulation measured after 24 hrs by ELISA. The conditions noted are these: time 24.5 hrs. Format: functional, cell-based. In general terms: An ELISA detects its analyte on a solid surface through an enzyme-linked reagent.

The nature of data set [7]: Cytotoxicity against VSMC (unknown origin) cells assessed as cell survival at 10 uM measured after 12 hrs by MTT assay. As to conditions: read-out: Activity. Format: toxicity, cell-based. Background: Formazan colour is commonly taken as a measure of viable cells.
For data set [8], the system named is BV-2. As to the kind of experiment: Anti-neuroinflammatory activity in mouse BV2 cells assessed as reduction in LPS-induced TNFalpha production at 10 uM preincubated for 30 mins followed by LPS stimulation measured after 24 hrs by ELISA. The data set is classed as functional, cell-based. As to conditions: time 24.5 hrs.
The species named for data set [9] is Rattus norvegicus. As to the kind of experiment: Vasorelaxant activity in U46619-induced preconstricted rat endothelium-intact main mesenteric artery assessed as relaxation response. Format: functional.
The species named for data set [10] is Rattus norvegicus. As to the kind of experiment: Vasorelaxant activity in U46619-induced contraction in rat endothelium-denuded main mesenteric arterial ring assessed as relaxation response relative to control. Format: functional. The conditions noted are these: Mesenteric artery.
Data set [11] is filed under the species Rattus norvegicus. Kind of data set: Vasorelaxant activity in U46619-induced contraction rat endothelium-intact main mesenteric arterial rings assessed as relaxation response relative to control. As to conditions: Mesenteric artery. Format: functional.
Data set [12] is filed under the species Rattus norvegicus. Kind of data set: Vasorelaxant activity in U46619-induced contraction rat endothelium-intact main mesenteric arterial rings assessed as relaxation response. Format: functional. The conditions noted are these: Mesenteric artery.
For data set [13], the species on record is Rattus norvegicus. As to the kind of experiment: Vasorelaxant activity in U46619-induced contraction in rat endothelium-denuded main mesenteric arterial ring assessed as relaxation response. Format: functional. The conditions noted are these: Mesenteric artery.
For data set [14], the species on record is Rattus norvegicus. As to the kind of experiment: Vasorelaxant activity in MKHS-induced preconstricted rat main mesenteric arterial rings assessed as relaxation response. Format: functional. The conditions noted are these: Mesenteric artery.
The species named for data set [15] is Rattus norvegicus. As to the kind of experiment: Vasorelaxant activity in U46619 induced preconstricted rat endothelium-intact thoracic aortic rings assessed as vasorelaxation response. The data set is classed as functional. The conditions noted are these: Thoracic aorta.

Results on 22 molecules are retold here after ChEMBL document CHEMBL5257123, “Synthesis of 6-alkoxy and 6-hydroxy-alkyl amine derivatives of braylin as vasorelaxing agents” (Bioorg Med Chem Lett, 2023).

The source made the active and inactive calls. The calls are words filed in the database; no cut-off is given here.

Turning to `CN1CCN(CC(O)COc2cc3ccc(=O)oc3c3c2OC(C)(C)C=C3)CC1` (stereo not given), in [1], the Emax – broadly, the size of the effect at its maximum, as opposed to the concentration needed – at 30 µM is under 50%.

`CCCCN(C)CC(O)COc1cc2ccc(=O)oc2c2c1OC(C)(C)C=C2` (stereo not given): in data set [1], the Emax at 30 µM is under 50%.

As for `CC(C)N(CC(O)COc1cc2ccc(=O)oc2c2c1OC(C)(C)C=C2)C(C)C` (stereo not given), in [1], the Emax at 30 µM was under 50%.

As to `CC(C)Oc1cc2ccc(=O)oc2c2c1OC(C)(C)C=C2`, the Emax at 30 µM in data set [1] is under 50%.

`CC(=O)OCC[N+](C)(C)C` [ACETYLCHOLINE]: the outcome in data set [2] was inactive. The result in data set [3] was Active. Besides, in data set [4], the Activity turned out to be 88.4%.

For the molecule `COc1cc2ccc(=O)oc2cc1O` [SCOPOLETIN], in data set [5], the viability at 12 h, 1 µM was found to be 91.2%. In addition, the result in data set [6] and in data set [8] was Active. In [7], the viability at 12 h, 10 µM was 102%.

`CCCCOc1cc2ccc(=O)oc2c2c1OC(C)(C)C=C2`: in data set [1], the Emax at 30 µM was under 50%.

For the molecule `CCCCCN(C)CC(O)COc1cc2ccc(=O)oc2c2c1OC(C)(C)C=C2` (stereo not given), the Emax at 30 µM in data set [1] is under 50%.

In the case of `CN(C)CC(O)COc1cc2ccc(=O)oc2c2c1OC(C)(C)C=C2` (stereo not given), the Emax at 30 µM in data set [1] was under 50%.

On to `CCN(CC)CC(O)COc1cc2ccc(=O)oc2c2c1OC(C)(C)C=C2` (stereo not given), for which, in data set [1], the Emax at 30 µM was under 50%.

Take `CC1(C)C=Cc2c(c(O)cc3ccc(=O)oc23)O1`: the outcome in data set [6] and in data set [8] was Active.

As for `CC1(C)C=Cc2c(c(OCC3CO3)cc3ccc(=O)oc23)O1` (stereo not given), the Emax at 30 µM in [1] is under 50%.

As to `CC1(C)C=Cc2c(ccc3ccc(=O)oc23)O1` [SESALIN], the Emax at 30 µM in data set [1] is 60.8%. Also, the result in [6] and in data set [8] was Active. Further, the EC50 was 2120 nM in data set [9] (read-out: EC50) and 2140 nM in [9] (read-out: pEC50 (converted)).

Take `CC1(C)C=Cc2c(c(OCC(O)CN3CCNCC3)cc3ccc(=O)oc23)O1` (stereo not given): in data set [1], the maximal effect (Emax) at 30 µM was under 50%.

Take `CC1(C)C=Cc2c(c(OCC(O)CN3CCCCC3)cc3ccc(=O)oc23)O1` (stereo not given): the Emax at 30 µM in [1] was under 50%.

For `CCOc1cc2ccc(=O)oc2c2c1OC(C)(C)C=C2`, the Emax in data set [10] stood at 91.4%; in data set [11], 96.6%. Also, in data set [1], the Emax at 30 µM came out at 96.6%. The viability at 12 h, 1 µM in data set [5] is 114%. Besides, the outcome in [6], in [8] and in data set [14] was Active. Also, the viability at 12 h, 10 µM in data set [7] was determined as 105%. Also, the EC50 in data set [12] was 200 nM; in [9] (read-out: pEC50 (converted)), 200 nM; in data set [13], 195 nM. In addition, the Activity result in [15] is “Dose-Dependent Effect”.

On to `COc1cc2ccc(=O)oc2c2c1OC(C)(C)C=C2`, for which the viability at 12 h, 1 µM in data set [5] is 101%. The result in data set [6] and in [8] was Active. Also, the viability at 12 h, 10 µM in [7] stood at 95.2%. Moreover, the EC50 in data set [9] (read-out: EC50) and in data set [9] (read-out: pEC50 (converted)) was 1580 nM throughout.

Regarding `CCCOc1cc2ccc(=O)oc2c2c1OC(C)(C)C=C2`, the Emax in data set [10] came to 85%; in data set [11] it was 80.6%. For the same molecule, the Emax at 30 µM in [1] was found to be 80.6%. Further, the viability at 12 h, 1 µM in data set [5] is 107%. Moreover, the result in [6], in data set [8] and in data set [14] was Active. Also, the viability at 12 h, 10 µM in data set [7] amounted to 105%. The EC50 in data set [12] is 2040 nM; in data set [9] (read-out: EC50), 1900 nM; in data set [9] (read-out: pEC50 (converted)) it was 2040 nM; in data set [13], 339 nM. Besides, the Activity result in [15] was “Dose-Dependent Effect”.

Turning to `CC1(C)C=Cc2c(c(OCC(O)CN3CCOCC3)cc3ccc(=O)oc23)O1` (stereo not given), the Emax at 30 µM in data set [1] was under 50%.

Turning to `CC1(C)C=Cc2c(c(OCC(O)CN3CCCC3)cc3ccc(=O)oc23)O1` (stereo not given), the maximal response (Emax) at 30 µM in data set [1] is under 50%.

`CCN1CCN(CC(O)COc2cc3ccc(=O)oc3c3c2OC(C)(C)C=C3)CC1` (stereo not given): the Emax at 30 µM in data set [1] was under 50%.

For `CC1(C)C=Cc2c(c(OCC(O)CNCc3ccccn3)cc3ccc(=O)oc23)O1` (stereo not given), in data set [1], the Emax at 30 µM was under 50%.
